Experimental findings from patent US20260125346A1, “Isoquinolinone Derivatives and 4H-Quinolizinone Derivatives and Pharmaceutical Compositions Thereof for the Treatment of Disease” (BeOne Medicines I GmbH, priority 2023, published 2026) are described below.

For test [1], the target named is PI3Kα (p110/p85) kinase (wild type, "WT") (Homo sapiens, UniProt P42336). In words: PI3Kα (p110/p85) kinase ADP-Glo Assay. Particulars: 25 uM ATP. The format is biochemical. As for the experimental part:
PI3Kα (p110/p85) kinase ADP-Glo Assay. Certain compounds disclosed herein were tested for inhibition of PI3Kα (p110/p85) kinase (wild type, “WT”) in assays based on the ADP-Glo™ Kinase Assay methodology. The assays were carried out in 384-well white plates in a reaction mixture containing PI3Kα (p110/p85) kinase, 25 µM ATP, 5.35 µg/mL PI(4,5)P2:PS Lipid Kinase Substrate and […] compound in buffer containing 50 mM HEPES pH7.5, 50 mM NaCl, 3 mM MgCl2, 0.0025% BSA and 2 mM DTT. PI3Kα (p110/p85) kinase was incubated with Lipid Kinase Substrate and compound for 30 minutes at room temperature and the reaction was initiated by the addition of ATP. After reaction at room temperature for 120 minutes, ADP-Glo™ reagents were added to terminate the kinase reaction and deplete the remaining ATP according to the manufacture's instruction (Promega Corporation). After incubation at room temperature for 1 hour, Kinase Detection Reagent (prepared by reconstituting the lyophilized Kinase Detection Substrate with Kinase Detection Buffer of the kit) was added to convert the ADP to ATP and to allow for the newly synthesized ATP to be measured using a luciferase/luciferin reaction. After incubation at room temperature for 0.5 hour, chemiluminescence signals were recorded on a PHERAstar FSX plate reader (BMG Labtech). The chemiluminescence generated in this assay correlates to the amount of ADP generated in the kinase assay, indicating kinase activity. […] The IC50 for each compound was derived from fitting the data to the four-parameter logistic equation by Dotmatics.
In general terms: ADP-Glo turns the ADP formed in a reaction into a luminescent signal.

Test [2] concerns PI3Kα H1047R mutated cell line T-47D cells. As to the kind of experiment: Cell Proliferation Assay (CellTiter-Glo), T-47D. As to conditions: for IC50: Homo sapiens, T47D, 72 h, T-47D, 3 days treatment; for Selectivity: SK-BR-3/T-47D (cell proliferation): cell proliferation IC50 ratio. The format is cell-based. As to the method: Cell Culture Maintenance. The T-47D (ATCC, HTB-133) cell line was obtained from the American Type Culture Collection. Cells were maintained in RPMI1640 medium (Gibco, REF #22400105) supplemented with 10% Fetal Bovine Serum (Gibco, REF #10091148). Cultures were maintained in a humidified incubator at 37° C. under 5% CO2/95% air.
(§1) Cell Proliferation Assay. PI3Kα H1047R mutated cell line T-47D cells and WT cell line SK-BR-3 were seeded at a density of 3×10^3 cells per well in 96 well plate (Xinyou Biotechnology, 062096) in 95 μL of culture medium, overnight. Compounds dissolved in 10 mM stock solutions in DMSO were serially diluted 1:3 in DMSO to generate a 9-point dilution series and plated using an INTEGRA ASSIST Plus pipetting robot. A 20× intermediate compound dilution plate in RPMI1640 medium (200 M starting compound concentration in 2% DMSO) was then prepared. Five μL of intermediate serially diluted compounds were added to the cell plate to final concentrations ranging from […] to 1 nM in 0.1% DMSO. 0.1% DMSO alone was used to establish the maximum signal and medium without cells was for minimum signal. After 3 days treatment, equilibrated the plate and its contents at room temperature for approximately 30 minutes. Added 30 μL CellTiter-Glo® Reagent (Promega, REF #G7571) to each well. Then mixed contents for 5 min on plate shaker to induce cell lysis. Incubated at room temperature for 10 minutes to stabilize luminescent signal. The plates were read on PHERAstar FSX Microplate reader using standard luminescence settings.
(§2) Relative IC50 values were determined using luminescence units by calculating percent inhibition with respect to the in-plate “MIN” (medium only) and “MAX” (0.1% DMSO) controls. The data were analyzed using a 4-parameter nonlinear logistic equation (four-parameter logistic concentration-response curve): Y=bottom+[(top−bottom)/1+(X/IC50) slope] • where Y=% inhibition, X=concentration of inhibitor, bottom=minimum value of y attained by curve-fit, top=maximum value of y attained by curve-fit and slope=steepness of curve at the IC50.
A general note: Cellular ATP, detected with luciferase, serves as a proxy for viable cell number.

The test system of test [3] is WT cell line SK-BR-3. As to the kind of experiment: Phospho-AKT (Ser473) Inhibition Assay (HTRF), SK-BR-3. Particulars: Homo sapiens; SK-BR-3, 1 hour treatment; read-out: p-AKT Inhibition assay (S473) IC50 SK-BR-3. It counts as cell-based. As to the method:
(§3) The SK-BR-3 (ATCC, HTB-30) cell line was obtained from the American Type Culture Collection. Cells were maintained in McCoy' 5A medium (Gibco, REF #16600108) supplemented with 10% Fetal Bovine Serum. Cultures were maintained in a humidified incubator at 37° C. under 5% CO2/95% air.
Phospho-AKT Inhibition Assay. HTRF Phospho-AKT (Ser473) detection kit (Cisbio, REF #64AKSPEH) was used in phosphor-AKT inhibition assay. For compound screening, PI3Kα H1047R mutated cell line T-47D and WT cell line SK-BR-3 cells were seeded at a density of 3×10^4 cells per well in 96 well plate (Costar, REF #3599) in 95 μL of assay medium (MEM medium (Gibco, REF #12561-056) with 1×NEAA (Gibco, REF #11140-050), 1 mM sodium pyruvate (Gibco, REF #11360-070), and 1 g/ml human insulin (Topscience, REF #T8221)), overnight. Compounds dissolved in 10 mM stock solutions in DMSO were serially diluted 1:3 in DMSO to generate an 11-point dilution series and plated using an INTEGRA ASSIST PLUS pipetting robot. A 20× intermediate compound dilution plate in RPMI1640 medium (200 M starting compound concentration in 2% DMSO) was then prepared. Five μL of intermediate serially diluted compounds were added to the cell plate to final concentrations ranging from […] to 0.1 nM in 0.1% DMSO. 0.1% DMSO alone was used to establish the maximum signal and GDC0077 at final concentration of 10 μM was used as a reference compound for minimum signal. After 1 hour treatment, removed medium and added 50 μL of supplemented lysis buffer (1×) immediately. Incubated for at least 30 minutes at room temperature under shaking. Transferred 16 μL of cell lysate from the 96-well cell-culture plate to a 384-white detection plate (PerkinElmer, Optiplate 384, 6007299). Added 4 μL of premixed antibody solutions prepared in the detection buffer. Incubated 4 hours at room temperature in dark. The plates were read on PHERAstar FSX Microplate reader (BMG LABTECH, Inc.) using standard HTRF settings.
Relative IC50 values were determined using luminescence units by calculating percent inhibition with respect to the in-plate “MIN” (GDC0077 reference control) and “MAX” (DMSO) controls. The data were analyzed using a 4-parameter nonlinear logistic equation (four-parameter logistic concentration-response curve): Y=bottom+[(top−bottom)/1+(X/IC50) slope] • where Y=% inhibition, X=concentration of inhibitor, bottom=minimum value of y attained by curve-fit, top=maximum value of y attained by curve-fit and slope=steepness of curve at the IC50.
On the technique in general: Time-resolved FRET reads energy transfer from a long-lived donor to a nearby acceptor.

The subject of test [4] is WT cell line SK-BR-3. As to the kind of experiment: Cell Proliferation Assay (CellTiter-Glo), SK-BR-3. It counts as cell-based. As to conditions: Homo sapiens, 72 h; SK-BR-3, 3 days treatment. As for the experimental part:
as §3, §1, §2

Molecules are shown by their SMILES. A value given as a limit tells only on which side of the number the result lay.

PI3Kα (p110/p85) kinase (wild type, "WT"), sequence (P42336 whole entry): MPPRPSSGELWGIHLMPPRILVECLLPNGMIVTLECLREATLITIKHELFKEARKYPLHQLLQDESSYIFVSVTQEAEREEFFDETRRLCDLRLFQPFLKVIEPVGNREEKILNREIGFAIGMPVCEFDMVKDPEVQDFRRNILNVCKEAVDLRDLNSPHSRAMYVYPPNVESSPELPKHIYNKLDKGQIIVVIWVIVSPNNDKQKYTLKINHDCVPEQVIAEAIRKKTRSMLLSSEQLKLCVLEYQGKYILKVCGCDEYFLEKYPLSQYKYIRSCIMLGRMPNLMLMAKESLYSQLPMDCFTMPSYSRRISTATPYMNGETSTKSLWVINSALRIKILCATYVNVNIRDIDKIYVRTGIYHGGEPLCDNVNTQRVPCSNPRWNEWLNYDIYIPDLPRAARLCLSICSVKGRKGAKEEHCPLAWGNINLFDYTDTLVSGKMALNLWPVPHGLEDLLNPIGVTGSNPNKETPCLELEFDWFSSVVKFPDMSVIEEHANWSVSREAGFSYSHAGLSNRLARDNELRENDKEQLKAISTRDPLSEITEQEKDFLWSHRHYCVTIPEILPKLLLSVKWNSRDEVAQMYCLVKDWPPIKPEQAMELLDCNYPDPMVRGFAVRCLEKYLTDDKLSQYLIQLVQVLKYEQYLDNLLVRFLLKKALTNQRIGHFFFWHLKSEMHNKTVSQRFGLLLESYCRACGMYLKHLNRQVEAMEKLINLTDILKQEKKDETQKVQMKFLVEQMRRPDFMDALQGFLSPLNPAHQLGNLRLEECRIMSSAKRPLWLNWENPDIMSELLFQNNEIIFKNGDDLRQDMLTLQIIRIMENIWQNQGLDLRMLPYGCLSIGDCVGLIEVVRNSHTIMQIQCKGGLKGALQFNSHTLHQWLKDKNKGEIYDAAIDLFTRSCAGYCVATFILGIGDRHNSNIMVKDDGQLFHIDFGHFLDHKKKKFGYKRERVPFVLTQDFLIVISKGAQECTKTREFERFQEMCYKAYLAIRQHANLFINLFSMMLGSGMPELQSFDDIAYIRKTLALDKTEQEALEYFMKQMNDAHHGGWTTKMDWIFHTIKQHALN
PI3Kα (p110/p85) kinase (wild type, "WT"), sequence (P27986 whole entry partner): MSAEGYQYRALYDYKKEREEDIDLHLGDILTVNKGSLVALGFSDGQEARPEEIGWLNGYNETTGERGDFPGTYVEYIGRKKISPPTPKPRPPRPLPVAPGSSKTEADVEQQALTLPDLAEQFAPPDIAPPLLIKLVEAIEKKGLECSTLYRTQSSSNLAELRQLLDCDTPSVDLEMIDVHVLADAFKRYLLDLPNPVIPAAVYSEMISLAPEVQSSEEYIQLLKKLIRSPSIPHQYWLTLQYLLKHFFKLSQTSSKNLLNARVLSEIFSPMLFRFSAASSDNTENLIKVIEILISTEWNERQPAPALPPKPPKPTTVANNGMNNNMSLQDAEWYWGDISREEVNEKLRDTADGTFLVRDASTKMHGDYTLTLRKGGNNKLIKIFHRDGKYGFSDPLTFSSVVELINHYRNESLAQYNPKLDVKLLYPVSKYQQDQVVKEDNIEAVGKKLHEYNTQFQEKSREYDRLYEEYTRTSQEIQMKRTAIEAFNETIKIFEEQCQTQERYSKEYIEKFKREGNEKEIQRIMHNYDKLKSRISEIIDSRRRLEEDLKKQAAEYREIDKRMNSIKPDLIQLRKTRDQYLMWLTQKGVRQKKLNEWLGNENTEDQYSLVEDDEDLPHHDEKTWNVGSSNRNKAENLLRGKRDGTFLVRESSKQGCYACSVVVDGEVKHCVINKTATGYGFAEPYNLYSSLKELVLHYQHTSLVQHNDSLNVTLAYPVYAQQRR

`Cc1cc(C(C)Nc2ccccc2C(=O)O)c2cc(-c3ccccc3)n(C)c(=O)c2c1` (stereo not shown) [Example 1, 2-((1-(2,7-dimethyl-1-oxo-3-phenyl-1,2-dihydroisoquinolin-5-yl)ethyl)amino)benzoic acid]: the IC50 (as a rule, the point on the concentration scale where inhibition reaches its midpoint) in test [1] was 2.77 µM; in test [2], 0.0846 µM; with WT cell line SK-BR-3 [3], 2.11 µM; with WT cell line SK-BR-3 [4], over 10 µM. Also, the “Selectivity: SK-BR-3/T-47D (cell proliferation)” value (from here on “Selectivity: SK-BR-3/T-47D”) in test [2] was over 118.

On to `Cc1cc(C(C)Nc2ccccc2C(=O)O)c2cc(-c3ccccc3C)n(C)c(=O)c2c1` (stereo not shown) [Example 2, 2-((1-(2,7-dimethyl-1-oxo-3-(o-tolyl)-1,2-dihydroisoquinolin-5-yl)ethyl)amino)benzoic acid], for which the IC50 in test [1] was 22.4 µM; in test [2], 1.23 µM; in the test with WT cell line SK-BR-3 [3], 2.85 µM; with WT cell line SK-BR-3 [4] it was over 10 µM. Further, in test [2], the “Selectivity: SK-BR-3/T-47D” value is over 8.2.

Consider `Cc1cc(C(C)Nc2ccccc2C(=O)O)c2cc(-c3cccc(C#N)c3)n(C)c(=O)c2c1` (stereo not shown) [Example 3, 2-((1-(3-(3-cyanophenyl)-2,7-dimethyl-1-oxo-1,2-dihydroisoquinolin-5-yl)ethyl)amino)benzoic acid], for which the IC50 in test [1] is 9.85 µM; in test [2] it was 0.143 µM; in the test on WT cell line SK-BR-3 [3], 4.35 µM; with WT cell line SK-BR-3 [4], over 10 µM. The “Selectivity: SK-BR-3/T-47D” value in test [2] is listed as over 70.

Consider `Cc1cc(C(C)Nc2ccccc2C(=O)O)c2cc(-c3cccc(C(C)(C)C#N)c3)n(C)c(=O)c2c1` (stereo not shown) [Example 5, 2-((1-(3-(3-(2-cyanopropan-2-yl)phenyl)-2,7-dimethyl-1-oxo-1,2-dihydroisoquinolin-5-yl)ethyl)amino)benzoic acid], for which the concentration for half-maximal inhibition (IC50) in test [1] was 5.28 µM; in test [2] it was 0.52 µM; in the test with WT cell line SK-BR-3 [3] it was 4.62 µM; with WT cell line SK-BR-3 [4] it was over 10 µM. For the same molecule, the “Selectivity: SK-BR-3/T-47D” value in test [2] is reported as over 19.

Take `Cc1cc(C(C)Nc2ccccc2C(=O)O)c2cc(-c3ccccc3F)n(C)c(=O)c2c1` (stereo not shown) [Example 6, 2-((1-(3-(2-fluorophenyl)-2,7-dimethyl-1-oxo-1,2-dihydroisoquinolin-5-yl)ethyl)amino)benzoic acid]: the IC50 was 2.88 µM in test [1], 0.327 µM in test [2], 3.21 µM with WT cell line SK-BR-3 [3] and over 10 µM in the test with WT cell line SK-BR-3 [4]. Besides, in test [2], the “Selectivity: SK-BR-3/T-47D” value is reported as over 31.

Consider `Cc1cc(C(C)Nc2ccccc2C(=O)O)c2cc(-c3cccc(F)c3)n(C)c(=O)c2c1` (stereo not shown) [Example 7, 2-((1-(3-(3-fluorophenyl)-2,7-dimethyl-1-oxo-1,2-dihydroisoquinolin-5-yl)ethyl)amino)benzoic acid], for which the IC50 in test [1] was 2.52 µM; in test [2], 0.101 µM; with WT cell line SK-BR-3 [3] it was 1.86 µM; with WT cell line SK-BR-3 [4], over 10 µM. For the same molecule, the “Selectivity: SK-BR-3/T-47D” value in test [2] is on record as over 98.8.

For the molecule `Cc1cc(C(C)Nc2ccccc2C(=O)O)c2cc(-c3ccc(F)cc3)n(C)c(=O)c2c1` (stereo not shown) [Example 8, 2-((1-(3-(4-fluorophenyl)-2,7-dimethyl-1-oxo-1,2-dihydroisoquinolin-5-yl)ethyl)amino)benzoic acid], the 50% inhibitory concentration (IC50) is 5.96 µM in test [1], 0.158 µM in test [2], 2.5 µM with WT cell line SK-BR-3 [3] and over 10 µM in the test with WT cell line SK-BR-3 [4]. Further, the “Selectivity: SK-BR-3/T-47D” value in test [2] is listed as over 63.

For `Cc1cc(C(C)Nc2ccccc2C(=O)O)c2cc(-c3ccc(F)c(F)c3)n(C)c(=O)c2c1` (stereo not shown) [Example 9, 2-((1-(3-(3,4-difluorophenyl)-2,7-dimethyl-1-oxo-1,2-dihydroisoquinolin-5-yl)ethyl)amino)benzoic acid], the IC50 was 2.71 µM in test [1], 0.143 µM in test [2], 3.64 µM in the test on WT cell line SK-BR-3 [3] and over 10 µM in the test with WT cell line SK-BR-3 [4]. For the same molecule, the “Selectivity: SK-BR-3/T-47D” value in test [2] is given as over 70.

In the case of `Cc1cc(C(C)Nc2ccccc2C(=O)O)c2cc(-c3cc(F)cc(F)c3)n(C)c(=O)c2c1` (stereo not shown) [Example 10, 2-((1-(3-(3,5-difluorophenyl)-2,7-dimethyl-1-oxo-1,2-dihydroisoquinolin-5-yl)ethyl)amino)benzoic acid], the concentration for half-maximal inhibition (IC50) in test [1] is 8.08 µM; in test [2], 0.129 µM; in the test with WT cell line SK-BR-3 [3], 2.73 µM; in the test on WT cell line SK-BR-3 [4], over 10 µM. For the same molecule, the “Selectivity: SK-BR-3/T-47D” value in test [2] is reported as over 78.

As for `Cc1cc(C(C)Nc2ccccc2C(=O)O)c2cc(-c3ccc(F)cc3F)n(C)c(=O)c2c1` (stereo not shown) [Example 11, 2-((1-(3-(2,4-difluorophenyl)-2,7-dimethyl-1-oxo-1,2-dihydroisoquinolin-5-yl)ethyl)amino)benzoic acid], the IC50 in test [1] was 21.1 µM; in test [2], 0.49 µM; in the test on WT cell line SK-BR-3 [3], over 10 µM; with WT cell line SK-BR-3 [4], over 10 µM. Further, in test [2], the “Selectivity: SK-BR-3/T-47D” value is over 20.42.

For the molecule `Cc1cc(C(C)Nc2ccccc2C(=O)O)c2cc(-c3cccc(F)c3F)n(C)c(=O)c2c1` (stereo not shown) [Example 12, 2-((1-(3-(2,3-difluorophenyl)-2,7-dimethyl-1-oxo-1,2-dihydroisoquinolin-5-yl)ethyl)amino)benzoic acid], the IC50 in test [1] was 6.69 µM; in test [2], 0.237 µM; in the test on WT cell line SK-BR-3 [3], 2.16 µM; in the test on WT cell line SK-BR-3 [4], over 10 µM. Moreover, the “Selectivity: SK-BR-3/T-47D” value in test [2] is on record as over 42.
